# Data: PubChem BioAssay AID1963825 (Molecular Pharmacology Branch, DTP, NCI, 2024)
# Experiment: Anticancer human tumor 997537-175-T-J1-PDC patient-derived colon adenocarcinoma cell line growth inhibition [POLQ]
# Details: 997537-175-T-J1-PDC complex spheroid viability, combination with POLQ inhibitors; for IC50: curve of first compound; for viability, T/C: stronger effect = lower value
# Summary of the method: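 Growth inhibition in 3D: complex spheroids (tumor PDC, HUVEC, MSC) treated with POLQ inhibitor combinations; where Cmax unknown, highest tested concentration 10 microM, except SN-38 at 1 microM.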
# [1] = second compound 0.0316 µM, first compound 0.0316 µM
# [2] = second compound 0.0316 µM, first compound 0.1 µM
# [3] = second compound 0.0316 µM, first compound 0.316 µM
# [4] = second compound 0.0316 µM, first compound 1 µM
# [5] = second compound 0.0316 µM, first compound 3.16 µM
# [6] = second compound 0.0316 µM, first compound 10 µM
# [7] = second compound 0.1 µM, first compound 0.0316 µM
# [8] = second compound 0.1 µM, first compound 0.1 µM
# [9] = second compound 0.1 µM, first compound 0.316 µM
# [10] = second compound 0.1 µM, first compound 1 µM
# [11] = second compound 0.1 µM, first compound 3.16 µM
# [12] = second compound 0.1 µM, first compound 10 µM
# [13] = second compound 0.316 µM, first compound 0.0316 µM
# [14] = second compound 0.316 µM, first compound 0.1 µM
# [15] = second compound 0.316 µM, first compound 0.316 µM
# [16] = second compound 0.316 µM, first compound 1 µM
# [17] = second compound 0.316 µM, first compound 3.16 µM
# [18] = second compound 0.316 µM, first compound 10 µM
# [19] = second compound 1 µM, first compound 0.0316 µM
# [20] = second compound 1 µM, first compound 0.1 µM
# [21] = second compound 1 µM, first compound 0.316 µM
# [22] = second compound 1 µM, first compound 1 µM
# [23] = second compound 1 µM, first compound 3.16 µM
# [24] = second compound 1 µM, first compound 10 µM
# [25] = second compound 3.16 µM, first compound 0.0316 µM
# [26] = second compound 3.16 µM, first compound 0.1 µM
# [27] = second compound 3.16 µM, first compound 0.316 µM
# [28] = second compound 3.16 µM, first compound 1 µM
# [29] = second compound 3.16 µM, first compound 3.16 µM
# [30] = second compound 3.16 µM, first compound 10 µM
# [31] = second compound 10 µM, first compound 0.0316 µM
# [32] = second compound 10 µM, first compound 0.1 µM
# [33] = second compound 10 µM, first compound 0.316 µM
# [34] = second compound 10 µM, first compound 1 µM
# [35] = second compound 10 µM, first compound 3.16 µM
# [36] = second compound 10 µM, first compound 10 µM
# 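Also: luminescence signal used as a surrogate for viable cells; spheroids exposed to drugs for seven days before readout.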
compound,measurement,setting,value
CC(C)n1c(=O)n(C)c2cnc3cc(F)c(-c4ccc(OCCCN5CCCCC5)nc4)cc3c21 + Cc1cccc(N(C)C(=O)C2C(O)CCN2c2nc(C)cc(C(F)(F)F)c2C#N)c1,IC50,second compound 0.0316 µM,> 10 µM
same,IC50,second compound 0.1 µM,> 10 µM
same,IC50,second compound 0.316 µM,> 10 µM
same,IC50,second compound 1 µM,> 10 µM
same,IC50,second compound 3.16 µM,> 10 µM
same,IC50,second compound 10 µM,> 10 µM
same,"viability, T/C",[1],94.2%
same,"viability, T/C",[2],91.7%
same,"viability, T/C",[3],105%
same,"viability, T/C",[4],97.5%
same,"viability, T/C",[5],98.7%
same,"viability, T/C",[6],82.7%
same,"viability, T/C",[7],96.7%
same,"viability, T/C",[8],106%
same,"viability, T/C",[9],90.8%
same,"viability, T/C",[10],98.6%
same,"viability, T/C",[11],103%
same,"viability, T/C",[12],81.3%
same,"viability, T/C",[13],103%
same,"viability, T/C",[14],99.9%
same,"viability, T/C",[15],105%
same,"viability, T/C",[16],103%
same,"viability, T/C",[17],90.2%
same,"viability, T/C",[18],87.7%
same,"viability, T/C",[19],87.2%
same,"viability, T/C",[20],102%
same,"viability, T/C",[21],92.5%
same,"viability, T/C",[22],86%
same,"viability, T/C",[23],96.8%
same,"viability, T/C",[24],91.2%
same,"viability, T/C",[25],87.1%
same,"viability, T/C",[26],96.3%
same,"viability, T/C",[27],90.2%
same,"viability, T/C",[28],80%
same,"viability, T/C",[29],98.8%
same,"viability, T/C",[30],73.6%
same,"viability, T/C",[31],99.6%
same,"viability, T/C",[32],101%
same,"viability, T/C",[33],86.8%
same,"viability, T/C",[34],83.8%
same,"viability, T/C",[35],91.8%
same,"viability, T/C",[36],76.6%
CC1COCCN1c1cc(-c2ccnn2C)c2ccnc(-c3ccn[nH]3)c2n1 (stereo not given) + Cc1cccc(N(C)C(=O)C2C(O)CCN2c2nc(C)cc(C(F)(F)F)c2C#N)c1,IC50,second compound 0.0316 µM,> 10 µM
same,IC50,second compound 0.1 µM,> 10 µM
same,IC50,second compound 0.316 µM,1.48 µM
same,IC50,second compound 1 µM,> 10 µM
same,IC50,second compound 3.16 µM,0.761 µM
same,IC50,second compound 10 µM,> 10 µM
same,"viability, T/C",[1],88.5%
same,"viability, T/C",[2],86.1%
same,"viability, T/C",[3],71.5%
same,"viability, T/C",[4],43.5%
same,"viability, T/C",[5],45.5%
same,"viability, T/C",[6],63.2%
same,"viability, T/C",[7],87.9%
same,"viability, T/C",[8],87%
same,"viability, T/C",[9],73.4%
same,"viability, T/C",[10],53.4%
same,"viability, T/C",[11],53.2%
same,"viability, T/C",[12],54.7%
same,"viability, T/C",[13],94.2%
same,"viability, T/C",[14],93.5%
same,"viability, T/C",[15],74%
same,"viability, T/C",[16],50.5%
same,"viability, T/C",[17],52.4%
same,"viability, T/C",[18],45.3%
same,"viability, T/C",[19],96.6%
same,"viability, T/C",[20],84.9%
same,"viability, T/C",[21],48.8%
same,"viability, T/C",[22],47.1%
same,"viability, T/C",[23],61.4%
same,"viability, T/C",[24],65.2%
same,"viability, T/C",[25],107%
same,"viability, T/C",[26],80.8%
same,"viability, T/C",[27],53.7%
same,"viability, T/C",[28],30.5%
same,"viability, T/C",[29],67.1%
same,"viability, T/C",[30],48.6%
same,"viability, T/C",[31],72.1%
same,"viability, T/C",[32],80.7%
same,"viability, T/C",[33],54.8%
same,"viability, T/C",[34],42%
same,"viability, T/C",[35],68.9%
same,"viability, T/C",[36],50.1%
CC1COCCN1c1cc(C2(S(C)(=N)=O)CC2)nc(-c2ccnc3[nH]ccc23)n1 (stereo not given) + Cc1cccc(N(C)C(=O)C2C(O)CCN2c2nc(C)cc(C(F)(F)F)c2C#N)c1,IC50,second compound 0.0316 µM,9.37 µM
same,IC50,second compound 0.1 µM,> 10 µM
same,IC50,second compound 0.316 µM,8.26 µM
same,IC50,second compound 1 µM,7.19 µM
same,IC50,second compound 3.16 µM,> 10 µM
same,IC50,second compound 10 µM,> 10 µM
same,"viability, T/C",[1],97.9%
same,"viability, T/C",[2],106%
same,"viability, T/C",[3],102%
same,"viability, T/C",[4],98.8%
same,"viability, T/C",[5],83.6%
same,"viability, T/C",[6],47.6%
same,"viability, T/C",[7],97.5%
same,"viability, T/C",[8],96.6%
same,"viability, T/C",[9],101%
same,"viability, T/C",[10],83.6%
same,"viability, T/C",[11],63.5%
same,"viability, T/C",[12],64.7%
same,"viability, T/C",[13],110%
same,"viability, T/C",[14],107%
same,"viability, T/C",[15],90.8%
same,"viability, T/C",[16],91.6%
same,"viability, T/C",[17],57.9%
same,"viability, T/C",[18],49.1%
same,"viability, T/C",[19],106%
same,"viability, T/C",[20],104%
same,"viability, T/C",[21],80.3%
same,"viability, T/C",[22],78.9%
same,"viability, T/C",[23],44.7%
same,"viability, T/C",[24],52.7%
same,"viability, T/C",[25],111%
same,"viability, T/C",[26],109%
same,"viability, T/C",[27],98.5%
same,"viability, T/C",[28],87.3%
same,"viability, T/C",[29],78.3%
same,"viability, T/C",[30],70.8%
same,"viability, T/C",[31],88.3%
same,"viability, T/C",[32],99.8%
same,"viability, T/C",[33],86%
same,"viability, T/C",[34],92.7%
same,"viability, T/C",[35],68.5%
same,"viability, T/C",[36],63.5%
CCc1cc2c(N3CCc4c(cc(Cn5ccnc5)cc4-c4cn(C)nc4C(F)(F)F)C3=O)ccnc2c(OC)n1 + Cc1cccc(N(C)C(=O)C2C(O)CCN2c2nc(C)cc(C(F)(F)F)c2C#N)c1,IC50,second compound 0.0316 µM,> 10 µM
same,IC50,second compound 0.1 µM,> 10 µM
same,IC50,second compound 0.316 µM,> 10 µM
same,IC50,second compound 1 µM,> 10 µM
same,IC50,second compound 3.16 µM,> 10 µM
same,IC50,second compound 10 µM,> 10 µM
same,"viability, T/C",[1],104%
same,"viability, T/C",[2],107%
same,"viability, T/C",[3],90.7%
same,"viability, T/C",[4],93.2%
same,"viability, T/C",[5],90.6%
same,"viability, T/C",[6],73.4%
same,"viability, T/C",[7],110%
same,"viability, T/C",[8],110%
same,"viability, T/C",[9],94.8%
same,"viability, T/C",[10],95.5%
same,"viability, T/C",[11],71%
same,"viability, T/C",[12],58.3%
same,"viability, T/C",[13],107%
same,"viability, T/C",[14],108%
same,"viability, T/C",[15],86.2%
same,"viability, T/C",[16],72%
same,"viability, T/C",[17],78.5%
same,"viability, T/C",[18],65.5%
same,"viability, T/C",[19],95.9%
same,"viability, T/C",[20],104%
same,"viability, T/C",[21],100%
same,"viability, T/C",[22],83.3%
same,"viability, T/C",[23],64.9%
same,"viability, T/C",[24],66.5%
same,"viability, T/C",[25],83.9%
same,"viability, T/C",[26],86.9%
same,"viability, T/C",[27],96.3%
same,"viability, T/C",[28],81.5%
same,"viability, T/C",[29],81.7%
same,"viability, T/C",[30],70.1%
same,"viability, T/C",[31],87.8%
same,"viability, T/C",[32],92.7%
same,"viability, T/C",[33],79.5%
same,"viability, T/C",[34],67.1%
same,"viability, T/C",[35],64.1%
same,"viability, T/C",[36],75.2%
COc1ccc([C@@H](O)c2cc(-c3ncnc4cc(N5CCOCC5)ccc34)c(F)cc2Cl)nn1 + Cc1cccc(N(C)C(=O)C2C(O)CCN2c2nc(C)cc(C(F)(F)F)c2C#N)c1,IC50,second compound 0.0316 µM,> 10 µM
same,IC50,second compound 0.1 µM,> 10 µM
same,IC50,second compound 0.316 µM,> 10 µM
same,IC50,second compound 1 µM,> 10 µM
same,IC50,second compound 3.16 µM,> 10 µM
same,IC50,second compound 10 µM,> 10 µM
same,"viability, T/C",[1],102%
same,"viability, T/C",[2],108%
same,"viability, T/C",[3],103%
same,"viability, T/C",[4],108%
same,"viability, T/C",[5],101%
same,"viability, T/C",[6],84.3%
same,"viability, T/C",[7],92.3%
same,"viability, T/C",[8],111%
same,"viability, T/C",[9],99.8%
same,"viability, T/C",[10],106%
same,"viability, T/C",[11],101%
same,"viability, T/C",[12],77.7%
same,"viability, T/C",[13],104%
same,"viability, T/C",[14],109%
same,"viability, T/C",[15],106%
same,"viability, T/C",[16],104%
same,"viability, T/C",[17],95.3%
same,"viability, T/C",[18],82.9%
same,"viability, T/C",[19],98.5%
same,"viability, T/C",[20],102%
same,"viability, T/C",[21],91.7%
same,"viability, T/C",[22],109%
same,"viability, T/C",[23],85.7%
same,"viability, T/C",[24],69.7%
same,"viability, T/C",[25],80.8%
same,"viability, T/C",[26],93.4%
same,"viability, T/C",[27],110%
same,"viability, T/C",[28],106%
same,"viability, T/C",[29],88.8%
same,"viability, T/C",[30],72.7%
same,"viability, T/C",[31],101%
same,"viability, T/C",[32],109%
same,"viability, T/C",[33],110%
same,"viability, T/C",[34],112%
same,"viability, T/C",[35],107%
same,"viability, T/C",[36],69.8%
